Experimental data published in patent US20240150293A1, “SPIROCYCLOHEXANE DERIVATIVES, PHARMACEUTICAL COMPOSITIONS CONTAINING THEM AND THEIR USES AS ANTI-APOPTOTIC INHIBITORS” (LES LABORATOIRES SERVIER, priority 2021, published 2024).

molecular target: Mcl-1 protein (UniProtKB Q07820) (Homo sapiens (Human), UniProt Q07820); test: Inhibition of Mcl-1 by the fluorescence polarisation assay (Example A, Method A); type: binding; conditions: fluorescence polarization assay
How it was run: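 Protein (5 nM) and fluorescein-tagged peptide tracer (1 nM) incubated with 11-point compound series for 2 h at room temperature in HEPES/NaCl/Tween 20 buffer, pH 7.4, 5% DMSO. Displacement read as decrease in polarisation; IC50 fitted by 4-parameter logistic, converted to Ki (cKi or eKi).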

Sequence of Mcl-1 protein (Q07820 whole entry): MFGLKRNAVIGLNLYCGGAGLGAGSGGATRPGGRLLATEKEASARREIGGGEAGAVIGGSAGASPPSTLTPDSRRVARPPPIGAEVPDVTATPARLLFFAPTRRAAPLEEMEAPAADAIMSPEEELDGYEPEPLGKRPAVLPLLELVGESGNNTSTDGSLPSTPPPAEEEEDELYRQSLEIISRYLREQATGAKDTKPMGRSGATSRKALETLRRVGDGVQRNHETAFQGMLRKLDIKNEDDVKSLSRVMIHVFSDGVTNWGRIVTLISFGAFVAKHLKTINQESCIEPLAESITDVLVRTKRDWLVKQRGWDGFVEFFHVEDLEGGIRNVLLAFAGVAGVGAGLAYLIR

| Compound | Ki |
| --- | --- |
| Cn1cc(C2Cc3ccccc3[C@]23CC[C@@](Nc2cccc(Br)c2)(C(=O)O)CC3)cn1 (stereo partly drawn) [Example 212, (1r,4r)-4-(3-bromoanilino)-2′-(1-methyl-1H-pyrazol-4-yl)-2′,3′-dihydrospiro[cyclohexane-1,1′-indene]-4-carboxylic acid] | 9.47 µM |
| O=C(O)[C@]1(Nc2cccc(Cl)c2)CC[C@@]2(CC1)c1ccccc1CC2c1ccccc1 (single isomer, unassigned) [Example 328, (1r,4r)-4-(3-chloroanilino)-2′-phenyl-2′,3′-dihydrospiro[cyclohexane-1,1′-indene]-4-carboxylic acid] | 0.677 µM |
| O=C(O)C1(Nc2cccc(Br)c2)CCC2(CC1)c1ccccc1CC2CCCc1ccccc1 (single isomer, unassigned) [Example 150, (1r,4r)-4-(3-bromoanilino)-2′-(3-phenylpropyl)-2′,3′-dihydrospiro[cyclohexane-1,1′-indene]-4-carboxylic acid] | 0.226 µM |
| COc1cccc(N2Cc3ccccc3[C@]23CC[C@](Nc2cccc(Br)c2)(C(=O)O)CC3)c1 [Example 31, (1r,4r)-4-(3-bromoanilino)-2′-(3-methoxyphenyl)-2′,3′-dihydrospiro[cyclohexane-1,1′-isoindole]-4-carboxylic acid] | 36.3 µM |
| CC1=Nc2ccc(Br)cc2[C@]12CC[C@](Nc1cccc(Br)c1)(C(=O)O)CC2 [Example 27, (1r,4r)-5′-bromo-4-(3-bromoanilino)-2′-methylspiro[cyclohexane-1,3′-indole]-4-carboxylic acid] | 36.3 µM |
| O=C(O)[C@]1(Nc2cccc(Cl)c2)CC[C@@]2(CC1)c1ccccc1CC2[C@H]1C[C@@H]1COc1ccccc1 (single isomer, unassigned) [Example 112, (1r,4r)-4-(3-chloroanilino)-2′-[(1R*,2S*)-2-(phenoxymethyl)cyclopropyl]-2′,3′-dihydrospiro[cyclohexane-1,1′-indene]-4-carboxylic acid] | 1.62 µM |
| CC1=C(C(C)C)c2ccccc2[C@]12CC[C@@](Nc1cccc(Br)c1)(C(=O)O)CC2 [Example 204, (1r,4r)-4-(3-bromoanilino)-2′-methyl-3′-(propan-2-yl)spiro[cyclohexane-1,1′-indene]-4-carboxylic acid] | 22.4 µM |
| O=C(O)[C@]1(Nc2cccc(Cl)c2)CC[C@@]2(CC1)c1ccccc1CC2CCCOc1ccnc2c1CCCC2F (stereo partly drawn) [Example 473, (1r,4r)-4-(3-chloroanilino)-2′-{3-[(8-fluoro-5,6,7,8-tetrahydroquinolin-4-yl)oxy]propyl}-2′,3′-dihydrospiro[cyclohexane-1,1′-indene]-4-carboxylic acid] | 0.0819 µM |
| CC1N(C=O)c2ccccc2[C@]12CC[C@](Nc1cccc(Br)c1)(C(=O)O)CC2 (stereo partly drawn) [Example 26, (1r,4r)-4-(3-bromoanilino)-1′-formyl-2′-methyl-1′,2′-dihydrospiro[cyclohexane-1,3′-indole]-4-carboxylic acid] | 42.8 µM |
| O=C(O)[C@]1(Nc2cccc(Cl)c2)CC[C@]2(CC1)C(c1ccc(Oc3ccncc3)cc1)=Cc1ccccc12 [Example 342, (1s,4s)-4-(3-chloroanilino)-2′-{4-[(pyridin-4-yl)oxy]phenyl}spiro[cyclohexane-1,1′-indene]-4-carboxylic acid] | 0.785 µM |
| COc1ccc(C2=Cc3ccccc3[C@]23CC[C@@](Nc2cccc(Cl)c2)(C(=O)O)CC3)cc1 [Example 230, (1s,4s)-4-(3-chloroanilino)-2′-(4-methoxyphenyl)spiro[cyclohexane-1,1′-indene]-4-carboxylic acid] | 1.06 µM |
| O=C(O)[C@]1(Nc2cccc(Cl)c2)CC[C@@]2(CC1)c1ccccc1CC2c1cccc(Cl)c1 (single isomer, unassigned) [Example 343, (1r,4r)-4-(3-chloroanilino)-2′-(3-chlorophenyl)-2′,3′-dihydrospiro[cyclohexane-1,1′-indene]-4-carboxylic acid] | 0.978 µM |
| O=C(O)[C@]1(Nc2cccc(Cl)c2)CC[C@@]2(CC1)c1ccccc1CC2[C@H]1C[C@@H]1COc1ccnc2ccsc12 (single isomer, unassigned) [Example 106, (1r,4r)-4-(3-chloroanilino)-2′-[(1R*,2S*)-2-{[(thieno[3,2-b]pyridin-7-yl)oxy]methyl}cyclopropyl]-2′,3′-dihydrospiro[cyclohexane-1,1′-indene]-4-carboxylic acid] | 2.26 µM |
| COc1cccc(Cl)c1C1=Cc2ccccc2[C@]12CC[C@@](Nc1cccc(Cl)c1)(C(=O)O)CC2 [Example 250, (1s,4s)-4-(3-chloroanilino)-2′-(2-chloro-6-methoxyphenyl)spiro[cyclohexane-1,1′-indene]-4-carboxylic acid] | 13.9 µM |

Continued by falling Ki, values first:

| Ki | Compound |
| --- | --- |
| 15.4 µM | O=C(O)[C@]1(Nc2cccc(Cl)c2)CC[C@@]2(CC1)c1ccccc1C[C@@H]2c1ccc(-c2ccccc2)o1 [Example 357, (1r,2′S,4S)-4-(3-chloroanilino)-2′-(5-phenylfuran-2-yl)-2′,3′-dihydrospiro[cyclohexane-1,1′-indene]-4-carboxylic acid] |
| 14.8 µM | Cc1ccc(S(=O)(=O)N2Cc3ccccc3C23CCC(Nc2cccc(Cl)c2)(C(=O)O)CC3)cc1 (single isomer, unassigned) [Example 28, 4-(3-chloroanilino)-2′-(4-methylbenzene-1-sulfonyl)-2′,3′-dihydrospiro[cyclohexane-1,1′-isoindole]-4-carboxylic acid] |
| 9.68 µM | O=C(O)[C@]1(Nc2cccc(Cl)c2)CC[C@@]2(CC1)c1ccccc1CC2[C@H]1C[C@@H]1COc1ccccc1 (relative stereo) [Example 111, (1r,4r)-4-(3-chloroanilino)-2′-[(1R*,2S*)-2-(phenoxymethyl)cyclopropyl]-2′,3′-dihydrospiro[cyclohexane-1,1′-indene]-4-carboxylic acid] |
| 4.77 µM | O=C(O)[C@]1(Nc2cccc(Cl)c2)CC[C@@]2(CC1)c1ccccc1CC2Cc1ccccc1 (stereo partly drawn) [Example 169, (1r,4r)-2′-benzyl-4-(3-chloroanilino)-2′,3′-dihydrospiro[cyclohexane-1,1′-indene]-4-carboxylic acid] |
| 2.62 µM | O=C(O)[C@]1(Nc2cccc(Cl)c2)CC[C@@]2(CC1)c1ccccc1C[C@H]2C1CCC1 [Example 100, (1r,2′S,4S)-4-(3-chloroanilino)-2′-cyclobutyl-2′,3′-dihydrospiro[cyclohexane-1,1′-indene]-4-carboxylic acid] |
| 2 µM | O=C(O)[C@]1(Nc2cccc(Cl)c2)CC[C@]2(CC1)C(c1cccc(Cl)c1)=Cc1ccccc12 [Example 334, (1s,4s)-4-(3-chloroanilino)-2′-(3-chlorophenyl)spiro[cyclohexane-1,1′-indene]-4-carboxylic acid] |
| 1.19 µM | COc1ccc2c(c1)[C@]1(CC[C@@](Nc3cccc(Br)c3)(C(=O)O)CC1)C1(CCCC1)C2 [Example 95, (1r,4r)-4-(3-bromoanilino)-6′-methoxy-3′H-dispiro[cyclohexane-1,1′-indene-2′,1″-cyclopentane]-4-carboxylic acid] |
| 0.779 µM | O=C(O)C1(Nc2cccc(Br)c2)CCC2(CC1)c1ccccc1CC2c1ccc(OCc2ccccc2)cc1 (stereo not drawn) [Example 244, 2′-[4-(benzyloxy)phenyl]-4-(3-bromoanilino)-2′,3′-dihydrospiro[cyclohexane-1,1′-indene]-4-carboxylic acid] |
| 0.706 µM | O=C(O)[C@]1(Nc2cccc(Cl)c2)CC[C@@]2(CCc3ccccc32)CC1 [Example 69, (1r,4s)-4-(3-chloroanilino)-2′,3′-dihydrospiro[cyclohexane-1,1′-indene]-4-carboxylic acid] |
| 0.663 µM | Cc1ccc(C2Cc3ccccc3[C@]23CC[C@@](Nc2cccc(Cl)c2)(C(=O)O)CC3)cc1 (single isomer, unassigned) [Example 306, (1r,4r)-4-(3-chloroanilino)-2′-(4-methylphenyl)-2′,3′-dihydrospiro[cyclohexane-1,1′-indene]-4-carboxylic acid] |
| 0.62 µM | O=C(O)[C@]1(Nc2cccc(Cl)c2)CC[C@@]2(CC1)c1ccccc1CC2CCCOC1CCOc2ccccc21 (stereo partly drawn) [Example 471, (1r,4r)-4-(3-chloroanilino)-2′-{3-[(3,4-dihydro-2H-1-benzopyran-4-yl)oxy]propyl}-2′,3′-dihydrospiro[cyclohexane-1,1′-indene]-4-carboxylic acid] |
| 0.302 µM | C=CCOc1ccc2c(c1)[C@]1(CC2)CC[C@](Nc2cccc(Br)c2)(C(=O)O)CC1 [Example 68, (1r,4s)-4-(3-bromoanilino)-6′-[(prop-2-en-1-yl)oxy]-2′,3′-dihydrospiro[cyclohexane-1,1′-indene]-4-carboxylic acid] |
| 0.236 µM | CC1CCc2nccc(OCCCC3Cc4ccccc4[C@]34CC[C@@](Nc3ccccc3)(C(=O)O)CC4)c21 (stereo partly drawn) [Example 477, (1r,4r)-4-anilino-2′-{3-[(5-methyl-6,7-dihydro-5H-cyclopenta[b]pyridin-4-yl)oxy]propyl}-2′,3′-dihydrospiro[cyclohexane-1,1′-indene]-4-carboxylic acid] |
| 0.219 µM | O=C(O)[C@]1(Nc2cccc(Cl)c2)CC[C@]2(CC1)C(Br)=Cc1cc(F)ccc12 [Example 138, (1s,4s)-2′-bromo-4-(3-chloroanilino)-5′-fluorospiro[cyclohexane-1,1′-indene]-4-carboxylic acid] |
| 0.154 µM | O=C(O)[C@]1(Nc2cccc(Cl)c2)CC[C@]2(CC1)C(c1cccc(OCC3CC3)c1)=Cc1ccccc12 [Example 339, (1s,4s)-4-(3-chloroanilino)-2′-[3-(cyclopropylmethoxy)phenyl]spiro[cyclohexane-1,1′-indene]-4-carboxylic acid] |
| 0.0776 µM | O=C(O)C1(Nc2cccc(Cl)c2)CCC2(CC1)c1ccccc1CC2CCCOc1ncnc2ccsc12 (stereo not drawn) [Example 437, (1r,4r)-4-(3-chloroanilino)-2′-{3-[(thieno[3,2-d]pyrimidin-4-yl)oxy]propyl}-2′,3′-dihydrospiro[cyclohexane-1,1′-indene]-4-carboxylic acid] |
